In ChEMBL document CHEMBL1153073, “Semi-synthesis and anti-proliferative activity evaluation of novel analogues of Honokiol” (Bioorg Med Chem Lett, 2009):

Columns and labels:
Assay type in all cases: functional, cell-based
[1] = test system: A549; assay: Antiproliferative activity against human A549 cells by MTT assay
[2] = Antiproliferative activity against human SPC-A1 cells by MTT assay; conditions: SPCA1
[3] = test system: K562; assay: Antiproliferative activity against human K562 cells by MTT assay
[4] = test system: A2780; assay: Antiproliferative activity against cisplatin-sensitive human A2780 cells by MTT assay
[5] = test system: A2780; assay: Antiproliferative activity against cisplatin-resistant human A2780 cells by MTT assay

Row | IC50 [1] | IC50 [3] | IC50 [4] | IC50 [5] | Compound | IC50 [2]
1 | 39.8 µM | 32.2 µM |  |  | C=CCc1cc(/C=N/c2ccccc2)c(O)c(-c2ccc(O)c(CC=C)c2)c1 | 40.7 µM
2 | 41.8 µM | 11.9 µM | 16.7 µM | 22.4 µM | C=CCc1ccc(O)c(-c2cc(C=O)c(O)c(CC=C)c2)c1 | 25.5 µM
3 | 93.3 µM | 90.7 µM |  |  | C=CCc1cc(/C=N/C2CCCCC2)c(O)c(-c2ccc(O)c(CC=C)c2)c1 | 88 µM
4 | > 104 µM | > 104 µM |  |  | C=CCc1cc(/C=N/Nc2ccccc2)c(O)c(-c2ccc(O)c(CC=C)c2)c1 | > 104 µM
5 | 55 µM | 36 µM |  |  | C=CCc1cc(C=O)c(O)c(-c2cc(C=O)c(O)c(CC=C)c2)c1 | 45.3 µM
6 | 65.6 µM | 78.4 µM |  |  | C=CCc1cc(-c2ccc(O)c(CC=C)c2)c2oncc2c1 | 77.3 µM
7 | 35 µM | 21.1 µM | 30.5 µM | 41.2 µM | C=CCc1ccc(O)c(-c2ccc(O)c(CC=C)c2)c1 [HONOKIOL] | 36.1 µM
8 | 57.6 µM | 47.6 µM |  |  | C=CCc1ccc(O)c(-c2cc(/C=C(\C#N)C(=O)OCC)c(O)c(CC=C)c2)c1 | 62 µM
9 | 40.4 µM | 20.7 µM | 33 µM | 37.2 µM | C=CCc1cc(/C=N\O)c(O)c(-c2ccc(O)c(CC=C)c2)c1 | 45 µM
10 | 87.4 µM | 95.1 µM |  |  | C=CCc1cc(/C=C(\C#N)C(=O)OCC)c(O)c(-c2ccc(O)c(CC=C)c2)c1 | 92.5 µM
11 | 39.5 µM | 24.9 µM |  |  | C=CCc1ccc(O)c(-c2cc(/C=N/O)c(O)c(CC=C)c2)c1 | 53.1 µM
12 | > 76.9 µM | > 76.9 µM |  |  | C=CCc1cc(/C=C2\SC(=O)NC2=O)c(O)c(-c2cc(/C=C3\SC(=O)NC3=O)c(O)c(CC=C)c2)c1 | > 76.9 µM
13 | 41.8 µM | 38.8 µM |  |  | C=CCc1cc(C=O)c(O)c(-c2ccc(O)c(CC=C)c2)c1 | 38.4 µM
14 | 91.6 µM | 91.6 µM |  |  | C=CCc1cc(/C=C2\SC(=O)NC2=O)c(O)c(-c2ccc(O)c(CC=C)c2)c1 | > 102 µM
15 | > 106 µM | > 106 µM |  |  | C=CCc1cc(/C=N/CCCCCC)c(O)c(-c2ccc(O)c(CC=C)c2)c1 | > 106 µM
16 | 32.4 µM | 21.5 µM | 20.2 µM | 29.3 µM | C=CCc1cc(/C=N\O)c(O)c(-c2cc(/C=N/O)c(O)c(CC=C)c2)c1 | 43.8 µM
17 | > 102 µM | 81.4 µM |  |  | C=CCc1ccc(O)c(-c2cc(/C=C3\SC(=O)NC3=O)c(O)c(CC=C)c2)c1 | > 102 µM
18 | 41.1 µM | 42.6 µM |  |  | C=CCc1cc(/C=N/CCN)c(O)c(-c2ccc(O)c(CC=C)c2)c1 | 50.3 µM
